Assay results as given in ChEMBL document CHEMBL5046300, “Potent Bactericidal Antimycobacterials Targeting the Chaperone ClpC1 Based on the Depsipeptide Natural Products Ecumicin and Ohmyungsamycin A” (2022).
≈ marks a conversion by molar mass, not a printed value. Calls of active or inactive are those of the source. No cut-off for these calls is given here. *1 amine or outer side, *2 acyl side, *3 side chain or, on linkers, in order; H or OH if unused. Where a SMILES comes first, the peptide text is derived from it. Bridges are numbered along the chain shown (N, C = ends). [ ]: non-standard residue; d: D form. The star is where a group is joined. Phe(3R-OH) = O=C([C@@H](N[*:1])[C@H](O[*:3])c1ccccc1)[*:2]; NMeTrp(4-OMe) = CN[C@@H](Cc1c[nH]c2cccc(OC)c12)C(=O)O; NMeW = CN[C@@H](Cc1c[nH]c2ccccc12)C(=O)O; NMeaIle = CC[C@@H](C)[C@H](NC)C(=O)O; NMe2Val = CC(C)[C@@H](C(=O)*)N(C)C; NMeF = CN[C@@H](Cc1ccccc1)C(=O)O; NMeT = CN[C@H](C(=O)O)[C@@H](C)O; NMeL = CN[C@@H](CC(C)C)C(=O)O; NMeV = CN[C@H](C(=O)O)C(C)C; NMeA = CN[C@@H](C)C(=O)O

Tests used:
[1] = tested on: Mycobacterium tuberculosis; assay: Antimycobacterial activity against Mycobacterium tuberculosis mc2 6230 measured after 7 days; format: functional; conditions: mc2 6230, 168 h, time 7 day
Escherichia coli = assay: Antibacterial activity against Escherichia coli K-12 MG1655 assessed as bacterial growth inhibition incubated for 18 to 20 hrs by broth microdilution method; format: functional; conditions: time 18-20 hrs
Klebsiella aerogenes = assay: Antibacterial activity against Klebsiella aerogenes ATCC 35029 assessed as bacterial growth inhibition incubated for 18 to 20 hrs by broth microdilution method; format: functional; conditions: time 18-20 hrs
Klebsiella pneumoniae = assay: Antibacterial activity against Klebsiella pneumoniae ATCC 700603 assessed as bacterial growth inhibition incubated for 18 to 20 hrs by broth microdilution method; format: functional; conditions: time 18-20 hrs
[2] = tested on: Providencia alcalifaciens; assay: Antibacterial activity against Providencia alcalifaciens ATCC 9886 assessed as bacterial growth inhibition incubated for 18 to 20 hrs by broth microdilution method; format: functional; conditions: time 18-20 hrs
Salmonella enterica = assay: Antibacterial activity against Salmonella enterica ATCC 13311 assessed as bacterial growth inhibition incubated for 18 to 20 hrs by broth microdilution method; format: functional; conditions: time 18-20 hrs
Shigella sonnei = assay: Antibacterial activity against Shigella sonnei ATCC 25931 assessed as bacterial growth inhibition incubated for 18 to 20 hrs by broth microdilution method; format: functional; conditions: time 18-20 hrs
[3] = tested on: Yersinia pseudotuberculosis; assay: Antibacterial activity against Yersinia pseudotuberculosis ATCC 6904 assessed as bacterial growth inhibition incubated for 18 to 20 hrs by broth microdilution method; format: functional; conditions: time 18-20 hrs
Acinetobacter baumannii = assay: Antibacterial activity against Acinetobacter baumannii ATCC 19606 assessed as bacterial growth inhibition incubated for 18 to 20 hrs by broth microdilution method; format: functional; conditions: time 18-20 hrs
Pseudomonas aeruginosa = assay: Antibacterial activity against Pseudomonas aeruginosa ATCC 27853 assessed as bacterial growth inhibition incubated for 18 to 20 hrs by broth microdilution method; format: functional; conditions: time 18-20 hrs
Vibrio cholerae = assay: Antibacterial activity against Vibrio cholerae A1552 El Tor assessed as bacterial growth inhibition incubated for 18 to 20 hrs by broth microdilution method; format: functional; conditions: time 18-20 hrs
Brucella anthropi = assay: Antibacterial activity against Ochrobactrum anthropi ATCC 49687 assessed as bacterial growth inhibition incubated for 18 to 20 hrs by broth microdilution method; format: functional; conditions: time 18-20 hrs
Bacillus subtilis = assay: Antibacterial activity against Bacillus subtilis ATCC 6051 assessed as bacterial growth inhibition incubated for 18 to 20 hrs by broth microdilution method; format: functional; conditions: time 18-20 hrs
Listeria ivanovii = assay: Antibacterial activity against Listeria ivanovii BAA-139 assessed as bacterial growth inhibition incubated for 18 to 20 hrs by broth microdilution method; format: functional; conditions: time 18-20 hrs
Staphylococcus aureus [4] = assay: Antibacterial activity against methicillin-sensitive Staphylococcus aureus ATCC 29213 assessed as bacterial growth inhibition incubated for 18 to 20 hrs by broth microdilution method; format: functional; conditions: time 18-20 hrs
Staphylococcus aureus [5] = assay: Antibacterial activity against methicillin-resistant Staphylococcus aureus BAA-44 assessed as bacterial growth inhibition incubated for 18 to 20 hrs by broth microdilution method; format: functional; conditions: time 18-20 hrs
[6] = tested on: Staphylococcus epidermidis; assay: Antibacterial activity against Staphylococcus epidermidis ATCC 14990 assessed as bacterial growth inhibition incubated for 18 to 20 hrs by broth microdilution method; format: functional; conditions: time 18-20 hrs
Enterococcus faecium = assay: Antibacterial activity against Enterococcus faecium ATCC 6569 assessed as bacterial growth inhibition incubated for 18 to 20 hrs by broth microdilution method; format: functional; conditions: time 18-20 hrs
Enterococcus faecalis = assay: Antibacterial activity against Enterococcus faecalis ATCC 29212 assessed as bacterial growth inhibition incubated for 18 to 20 hrs by broth microdilution method; format: functional; conditions: time 18-20 hrs
Streptococcus pneumoniae = assay: Antibacterial activity against Streptococcus pneumoniae ATCC 49619 assessed as bacterial growth inhibition incubated for 18 to 20 hrs by broth microdilution method; format: functional; conditions: time 18-20 hrs
[7] = tested on: Mycobacterium tuberculosis; assay: Synergistic antimycobacterial activity against Mycobacterium tuberculosis mc2 6230 assessed as fractional inhibitory concentration incubated for 7 days in presence of rifampicin by checkerboard assay; format: functional; conditions: time 7 day
[8] = tested on: Mycobacterium tuberculosis; assay: Synergistic antimycobacterial activity against Mycobacterium tuberculosis mc2 6230 assessed as fractional inhibitory concentration incubated for 7 days in presence of isoniazid by checkerboard assay; format: functional; conditions: time 7 day
[9] = tested on: Mycobacterium tuberculosis; assay: Synergistic antimycobacterial activity against Mycobacterium tuberculosis mc2 6230 assessed as fractional inhibitory concentration incubated for 7 days in presence of pyrazinamide by checkerboard assay; format: functional; conditions: time 7 day
[10] = tested on: Mycobacterium tuberculosis; assay: Synergistic antimycobacterial activity against Mycobacterium tuberculosis mc2 6230 assessed as fractional inhibitory concentration incubated for 7 days in presence of ethambutol by checkerboard assay; format: functional; conditions: time 7 day
[11] = tested on: Mycobacterium tuberculosis; assay: Synergistic antimycobacterial activity against Mycobacterium tuberculosis mc2 6230 assessed as fractional inhibitory concentration incubated for 7 days in presence of clofazimine by checkerboard assay; format: functional; conditions: time 7 day
[12] = tested on: Mycobacterium tuberculosis; assay: Synergistic antimycobacterial activity against Mycobacterium tuberculosis mc2 6230 assessed as fractional inhibitory concentration incubated for 7 days in presence of bedaquiline by checkerboard assay; format: functional; conditions: time 7 day
[13] = tested on: Mycobacterium tuberculosis; assay: Antimycobacterial activity against Mycobacterium tuberculosis mc2 6230 measured after 7 days by Time kill assay; format: functional, organism-based; conditions: time 7.0 day
[14] = tested on: Mycolicibacterium smegmatis; assay: Enhancement of hexameric Mycobacterium smegmatis ClpC1 ATPase activity assessed as fold increase at 100 uM incubated for 30 mins by ATP/NADH spectrophotometric analysis; conditions: filed as activator
[15] = tested on: Mycobacterium tuberculosis; assay: Bactericidal activity against Mycobacterium tuberculosis mc2 6230 at 10 time MIC monitored for 28 days under hypoxic non-replicating culture condition by time kill assay; format: functional, organism-based; conditions: time 28.0 day
[16] = tested on: Mycobacterium tuberculosis; assay: Antibacterial activity against Mycobacterium tuberculosis mc2 6230 assessed as reduction in viable cells at 10 times MIC measured for 42 days in solid media by time kill assay; format: functional; conditions: time 42 day
Mycobacterium marinum [17] = assay: Antimycobacterial activity against mid-exponential phase Mycobacterium marinum M strain incubated for 2 days by fluorescence assay; format: functional; conditions: 48 h, time 2 day
Mycobacterium marinum [18] = assay: Antimycobacterial activity against tdTomato fluorescent Mycobacterium marinum infected in zebrafish assessed as reduction in bacterial burden at 25 uM pre-infected with bacteria for 4 to 5 days followed by compound addition and measured after day 6 post infection by microscopic analysis relative to control; format: functional; set-up: scale not given: the % may be the effect or the level left; conditions: time 4-5 day
Mycobacterium marinum [19] = assay: Antimycobacterial activity against Mycobacterium marinum infected in zebrafish assessed as reduction in bacterial burden at 10 uM after 6 days post infection; format: functional; set-up: scale not given: the % may be the effect or the level left; conditions: time 6 day
Mycobacterium marinum [20] = assay: Antimycobacterial activity against Mycobacterium marinum infected in zebrafish assessed as reduction in bacterial burden at 10 uM in presence of rifampicin after 6 days post infection; format: functional; set-up: scale not given: the % may be the effect or the level left; conditions: time 6 day
[21] = tested on: Mycolicibacterium smegmatis; assay: Enhancement of Mycobacterium smegmatis ClpC1 ATPase activity assessed as inhibition of ClpC1/ClpP1P2 complex-mediated beta-casein proteolysis incubated for 30 to 60 mins by in vitro degradation assay; conditions: filed as activator, time 30-60 min
[22] = tested on: Mycobacterium tuberculosis; assay: Antimycobacterial activity against Mycobacterium tuberculosis H37Rv infected in human THP-1 cells assessed as log reduction in bacterial growth at 10 uM incubated for 3 to 4 weeks by intracellular killing assay; format: functional; conditions: time 3-4 weeks

SMILES	MIC [1] [µM]	MIC (Escherichia coli) [µM]	MIC (Klebsiella aerogenes) [µM]	MIC (Klebsiella pneumoniae) [µM]	MIC [2] [µM]	MIC (Salmonella enterica) [µM]	MIC (Shigella sonnei) [µM]	MIC [3] [µM]	MIC (Acinetobacter baumannii) [µM]	MIC (Pseudomonas aeruginosa) [µM]	MIC (Vibrio cholerae) [µM]	MIC (Brucella anthropi) [µM]	MIC (Bacillus subtilis) [µM]	MIC (Listeria ivanovii) [µM]	MIC (Staphylococcus aureus [4]) [µM]	MIC (Staphylococcus aureus [5]) [µM]	MIC [6] [µM]	MIC (Enterococcus faecium) [µM]	MIC (Enterococcus faecalis) [µM]	MIC (Streptococcus pneumoniae) [µM]	other results
CN[C@H](C(=O)N[C@H](C(=O)N[C@@H]1C(=O)N(C)[C@@H]([C@@H](C)O)C(=O)N[C@@H](C(C)C)C(=O)N(C)[C@@H](CC(C)C)C(=O)N[C@@H](C(C)C)C(=O)N(C)[C@@H](C)C(=O)N(C)[C@@H](Cc2c[nH]c3ccccc23)C(=O)N[C@@H](C(C)C)C(=O)N[C@@H](Cc2ccccc2)C(=O)N[C@@H](C(C)C)C(=O)O[C@@H]1C)C(C)C)C(C)C (H-[NMeV]VT[NMeT]V[NMeL]V[NMeA][NMeW]VFV; ester 3-C)	0.5 (≈ 0.692 µg/mL)	> 128	128 (≈ 177 µg/mL)	> 128	> 128	> 128	> 128	> 128	> 128	> 128	> 128	> 128	128 (≈ 177 µg/mL)	> 128	> 128	> 128	> 128	> 128	> 128	> 128	FIC [7]: 0.375; FIC [8]: 2; FIC [9]: 2; FIC [10]: 0.75; FIC [11]: 2; FIC [12]: 3; Activity [13]: Active; fold change (FC) [14]: 3; Activity [15]: Active; Activity [16]: 6 log10CFU/ml; MIC50 (Mycobacterium marinum [17]): 1.44 µM (≈ 1.99 µg/mL); Activity (Mycobacterium marinum [18]): 76%; Activity (Mycobacterium marinum [19]): 50%; Activity (Mycobacterium marinum [20]): 83%; Activity [21]: Active
CN[C@H](C(=O)N[C@H](C(=O)N[C@@H]1C(=O)N(C)[C@@H]([C@@H](C)O)C(=O)N[C@@H](C(C)C)C(=O)N(C)[C@@H](CC(C)C)C(=O)N[C@@H](C(C)C)C(=O)N(C)[C@@H](Cc2ccccc2)C(=O)N(C)[C@@H](Cc2c[nH]c3ccccc23)C(=O)N[C@@H](C(C)C)C(=O)N[C@@H](Cc2ccccc2)C(=O)N[C@@H](C(C)C)C(=O)O[C@@H]1C)C(C)C)C(C)C (H-[NMeV]VT[NMeT]V[NMeL]V[NMeF][NMeW]VFV; ester 3-C)	0.125 (≈ 0.183 µg/mL)	–	–	–	–	–	–	–	–	–	–	–	–	–	–	–	–	–	–	–	inhibition [21]: Active
CC[C@@H](C)[C@@H](C(=O)N[C@@H]1C(=O)N(C)[C@@H]([C@@H](C)O)C(=O)N[C@@H](C(C)C)C(=O)N(C)[C@@H](CC(C)C)C(=O)N[C@@H](C(C)C)C(=O)N(C)[C@@H](C(C)C)C(=O)N(C)[C@@H](Cc2c[nH]c3cccc(OC)c23)C(=O)N[C@@H](C(C)C)C(=O)N[C@@H]([C@H](O)c2ccccc2)C(=O)N[C@@H](C(C)C)C(=O)O[C@@H]1C)N(C)C(=O)[C@@H](NC(=O)[C@H](C(C)C)N(C)C)C(C)C (NMe2Val-V[NMeaIle]T[NMeT]V[NMeL]V[NMeV][NMeTrp(4-OMe)]V[Phe(3R-OH)]V; ester 3-C)	1 (≈ 1.6 µg/mL)	–	–	–	–	–	–	–	–	–	–	–	–	–	–	–	–	–	–	–	Activity [22]: 1 log10CFU/ml
CO[C@H]1/C=C/O[C@@]2(C)Oc3c(C)c(O)c4c(O)c(c(/C=N/N5CCN(C)CC5)c(O)c4c3C2=O)NC(=O)/C(C)=C\C=C\[C@H](C)[C@H](O)[C@@H](C)[C@@H](O)[C@@H](C)[C@H](OC(C)=O)[C@@H]1C [RIFAMPIN]	–	4 (≈ 3.29 µg/mL)	8 (≈ 6.58 µg/mL)	16 (≈ 13.2 µg/mL)	8 (≈ 6.58 µg/mL)	2 (≈ 1.65 µg/mL)	1.7 (≈ 1.4 µg/mL)	11 (≈ 9.05 µg/mL)	1 (≈ 0.823 µg/mL)	53 (≈ 43.6 µg/mL)	128 (≈ 105 µg/mL)	4 (≈ 3.29 µg/mL)	4 (≈ 3.29 µg/mL)	0.19 (≈ 0.156 µg/mL)	0.02 (≈ 0.0165 µg/mL)	0.01 (≈ 0.00823 µg/mL)	0.02 (≈ 0.0165 µg/mL)	21 (≈ 17.3 µg/mL)	1 (≈ 0.823 µg/mL)	0.11 (≈ 0.0905 µg/mL)	Activity [22]: 1 log10CFU/ml; Activity (Mycobacterium marinum [19]): 27%
